Tests used:
[1] = biological target: Recombinant full length human OGA enzyme (Homo sapiens (Human), UniProt O60502); experiment: OGA Enzyme Inhibition Biochemical Assay; settings: 1 nM OGA, 100 μM 4-MUGlcNAc, pH 6.4
Outline: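 Full-length recombinant human OGA with fluorogenic 4-MUGlcNAc in McIlvaine buffer pH 6.4, 0.01% BSA; 90 min at room temperature, glycine pH 10 quench, fluorescence Ex 355/Em 460 nm. 10-point, 4-fold dilution from 20 μM; 4-parameter variable-slope fit.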

[2] = biological target: OGA (S400 O-GLCNAC), HEK-293T cells transfected with Tau-V5 (Homo sapiens (Human), UniProt O60502); experiment: Cellular OGA-Tau MSD Assay; assay type: cell-based; settings: HEK-293T cells, Tau-S400-GlcNAc MSD readout
Sequence of OGA (S400 O-GLCNAC), HEK-293T cells transfected with Tau-V5 (O60502 whole entry): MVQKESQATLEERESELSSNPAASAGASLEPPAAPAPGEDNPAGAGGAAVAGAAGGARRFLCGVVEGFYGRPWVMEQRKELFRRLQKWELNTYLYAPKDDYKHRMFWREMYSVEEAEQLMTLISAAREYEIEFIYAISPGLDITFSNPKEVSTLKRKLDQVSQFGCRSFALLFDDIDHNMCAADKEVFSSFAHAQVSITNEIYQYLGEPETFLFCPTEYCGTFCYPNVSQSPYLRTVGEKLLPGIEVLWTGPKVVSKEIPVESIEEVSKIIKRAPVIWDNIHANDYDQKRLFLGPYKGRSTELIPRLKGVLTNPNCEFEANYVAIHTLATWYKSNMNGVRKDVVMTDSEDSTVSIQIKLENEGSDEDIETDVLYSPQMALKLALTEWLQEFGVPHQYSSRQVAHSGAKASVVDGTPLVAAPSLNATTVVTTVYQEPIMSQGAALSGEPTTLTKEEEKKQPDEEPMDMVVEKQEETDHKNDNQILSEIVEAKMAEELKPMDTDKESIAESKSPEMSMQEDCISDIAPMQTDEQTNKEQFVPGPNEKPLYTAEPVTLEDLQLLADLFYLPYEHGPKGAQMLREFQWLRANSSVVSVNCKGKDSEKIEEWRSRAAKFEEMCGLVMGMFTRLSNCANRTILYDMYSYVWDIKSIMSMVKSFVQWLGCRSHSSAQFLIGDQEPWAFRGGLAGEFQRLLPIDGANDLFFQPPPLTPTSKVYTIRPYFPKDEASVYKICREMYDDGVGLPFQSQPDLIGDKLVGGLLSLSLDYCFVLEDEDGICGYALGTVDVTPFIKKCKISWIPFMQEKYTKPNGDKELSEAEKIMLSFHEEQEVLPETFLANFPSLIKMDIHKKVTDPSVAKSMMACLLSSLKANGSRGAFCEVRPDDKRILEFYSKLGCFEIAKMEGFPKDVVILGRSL
Outline: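 HEK-293T cells transfected with OGA and Tau-V5 plasmids were treated overnight at 37° C with a 10-point, 3-fold titration from 1 uM. Lysates went onto V5-antibody MSD plates to capture Tau, probed with a Tau O-GlcNAc antibody and read by electrochemiluminescence; IC50 from a 4-parameter fit.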

P-gp (MDR1) = experiment: MDR1-MDCK Efflux Ratio Assay; assay type: in vitro ADME; settings: dog, MDCK-MDR1, pH 7.4, MDR1-MDCK cells, 2 hr, pH 7.4; read-out: MDR1-MDCK Efflux Ratio (B-A/A-B)
Outline: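 Bidirectional (apical↔basolateral) transport across confluent MDR1-MDCK monolayers in HBSS/10 mM HEPES pH 7.4, receiver buffer with 1% BSA; 2 hr at 37° C, 5% CO2. Donor sampled at 0 and 120 min, receiver at 120 min, quantified by LC-MS/MS in triplicate. Papp, efflux ratio and percent recovery calculated.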

[3] = Rat Liver Microsome Stability Assay; assay type: in vitro ADME; settings: rat liver microsomes, 1 uM compound

Sequence of Recombinant full length human OGA enzyme (O60502 whole entry): as above

Compound | IC50 [1] [nM] | IC50 [2] [nM] | efflux ratio at 2 h (P-gp (MDR1)) | RLM % Qh (%) [3] [%]
CC(=O)Nc1nc(F)c(CN2C[C@H](Oc3cc(O)ncn3)C[C@@H]2C)s1 [Example 1-109, N-(4-fluoro-5-(((2S,4R)-4-((6-hydroxypyrimidin-4-yl)oxy)-2-methylpyrrolidin-1-yl)methyl)thiazol-2-yl)acetamide] | < 1 | 8 | 12.7 | 16
CC(=O)Nc1nc(F)c(CN2C[C@H](Oc3ccnc(C)c3)C[C@@H]2C)s1 [Example 1-110, N-(4-fluoro-5-(((2S,4R)-2-methyl-4-((2-methylpyridin-4-yl)oxy)pyrrolidin-1-yl)methyl)thiazol-2-yl)acetamide] | < 1 | 1 | 34.4 | 39
CC(=O)Nc1nc(F)c(CN2C[C@H](Oc3ncc(F)cn3)C[C@@H]2C)s1 [Example 1-112, N-(4-fluoro-5-(((2S,4R)-4-((5-fluoropyrimidin-2-yl)oxy)-2-methylpyrrolidin-1-yl)methyl)thiazol-2-yl)acetamide] | < 1 | 1 | 5.3 | 45
CC(=O)Nc1nc(F)c(CN2C[C@H](Oc3cnc(C(F)F)cn3)C[C@@H]2C)s1 [Example 1-113, N-(5-(((2S,4R)-4-((5-(difluoromethyl)pyrazin-2-yl)oxy)-2-methylpyrrolidin-1-yl)methyl)-4-fluorothiazol-2-yl)acetamide] | 2.1 | 5 | 2.1 | 61
COc1ccc(O[C@@H]2C[C@H](C)N(Cc3sc(NC(C)=O)nc3F)C2)cn1 [Example 1-114, N-(4-fluoro-5-(((2S,4R)-4-((6-methoxypyridin-3-yl)oxy)-2-methylpyrrolidin-1-yl)methyl)thiazol-2-yl)acetamide] | < 1 | 2 | 1.9 | 69
CC(=O)Nc1ncc(CN2C[C@H](Oc3ccc(F)nc3)C[C@@H]2C)s1 [Example 1-115, N-(5-(((2S,4R)-4-((6-fluoropyridin-3-yl)oxy)-2-methylpyrrolidin-1-yl)methyl)thiazol-2-yl)acetamide] | < 1 | 2 | 4.7 | 54
COc1cc(O[C@@H]2C[C@H](C)N(Cc3sc(NC(C)=O)nc3F)C2)ncc1F [Example 1-118, N-(4-fluoro-5-(((2S,4R)-4-((5-fluoro-4-methoxypyridin-2-yl)oxy)-2-methylpyrrolidin-1-yl)methyl)thiazol-2-yl)acetamide] | < 1 | 1 | 3.5 | 85
CC(=O)Nc1nc(F)c(CN2C[C@H](Oc3cncnc3)C[C@@H]2C)s1 [Example 1-119, N-(4-fluoro-5-(((2S,4R)-2-methyl-4-(pyrimidin-5-yloxy)pyrrolidin-1-yl)methyl)thiazol-2-yl)acetamide] | 1.3 | 19 | 6.3 | 50
CO[C@H]1C[C@H](Oc2cc(O[C@@H]3C[C@H](C)N(Cc4cnc(NC(C)=O)s4)C3)ncn2)C1 [Example 1-120, N-(5-(((2S,4R)-4-((6-((1r,3R)-3-methoxycyclobutoxy)pyrimidin-4-yl)oxy)-2-methylpyrrolidin-1-yl)methyl)thiazol-2-yl)acetamide] | < 1 | 2 | 10.3 | 64
COCCOc1cc(O[C@@H]2C[C@H](C)N(Cc3cnc(NC(C)=O)s3)C2)ncn1 [Example 1-122, N-(5-(((2S,4R)-4-((6-(2-methoxyethoxy)pyrimidin-4-yl)oxy)-2-methylpyrrolidin-1-yl)methyl)thiazol-2-yl)acetamide] | < 1 | 3 | 2.1 | 32
CO[C@H]1C[C@@H](Oc2cc(O[C@@H]3C[C@H](C)N(Cc4cnc(NC(C)=O)s4)C3)ncn2)C1 [Example 1-123, N-(5-(((2S,4R)-4-((6-((1s,3S)-3-methoxycyclobutoxy)pyrimidin-4-yl)oxy)-2-methylpyrrolidin-1-yl)methyl)thiazol-2-yl)acetamide] | 1.1 | 5 | 5.7 | 55
CC(=O)Nc1ncc(CN2C[C@H](Oc3cc(OC4COC4)ncn3)C[C@@H]2C)s1 [Example 1-124, N-(5-(((2S,4R)-2-methyl-4-((6-(oxetan-3-yloxy)pyrimidin-4-yl)oxy)pyrrolidin-1-yl)methyl)thiazol-2-yl)acetamide] | < 1 | 3 | 11.2 | 16

More lines, now with the values ahead:

IC50 [1] [nM] | IC50 [2] [nM] | efflux ratio at 2 h (P-gp (MDR1)) | RLM % Qh (%) [3] [%] | Compound
< 1 | 1 | 2.2 | 95 | COc1cccc(O[C@@H]2C[C@H](C)N(Cc3sc(NC(C)=O)nc3F)C2)n1 [Example 1-99, N-(4-fluoro-5-(((2S,4R)-4-((6-methoxypyridin-2-yl)oxy)-2-methylpyrrolidin-1-yl)methyl)thiazol-2-yl)acetamide]
< 1 | 3 | 1.5 | 88 | CC(=O)Nc1nc(F)c(CN2C[C@H](Oc3cc(Cl)ccn3)C[C@@H]2C)s1 [Example 1-101, N-(5-(((2S,4R)-4-((4-chloropyridin-2-yl)oxy)-2-methylpyrrolidin-1-yl)methyl)-4-fluorothiazol-2-yl)acetamide]
< 1 | 2 | 1.2 | 82 | CC(=O)Nc1nc(F)c(CN2C[C@H](Oc3cc(F)c(F)cn3)C[C@@H]2C)s1 [Example 1-102, N-(5-(((2S,4R)-4-((4,5-difluoropyridin-2-yl)oxy)-2-methylpyrrolidin-1-yl)methyl)-4-fluorothiazol-2-yl)acetamide]
< 1 | 3 | 15.9 | 45 | CC(=O)Nc1nc(F)c(CN2C[C@H](Oc3cc(N4CCOCC4)ncn3)C[C@@H]2C)s1 [Example 1-103, N-(4-fluoro-5-(((2S,4R)-2-methyl-4-((6-morpholinopyrimidin-4-yl)oxy)pyrrolidin-1-yl)methyl)thiazol-2-yl)acetamide]
< 1 | 2 | 16 | 30 | CC(=O)Nc1ncc(CN2C[C@H](Oc3ccnc(C)n3)C[C@@H]2C)s1 [Example 1-104, N-(5-(((2S,4R)-2-methyl-4-((2-methylpyrimidin-4-yl)oxy)pyrrolidin-1-yl)methyl)thiazol-2-yl)acetamide]
< 1 | 2 | 2.4 | 74 | COc1cnc(O[C@@H]2C[C@H](C)N(Cc3sc(NC(C)=O)nc3F)C2)cn1 [Example 1-105, N-(4-fluoro-5-(((2S,4R)-4-((5-methoxypyrazin-2-yl)oxy)-2-methylpyrrolidin-1-yl)methyl)thiazol-2-yl)acetamide]
< 1 | 2 | 3.4 | 79 | CC(=O)Nc1nc(F)c(CN2C[C@H](Oc3cnc(C)cn3)C[C@@H]2C)s1 [Example 1-108, N-(4-fluoro-5-(((2S,4R)-2-methyl-4-((5-methylpyrazin-2-yl)oxy)pyrrolidin-1-yl)methyl)thiazol-2-yl)acetamide]

— patent US20240308995A1, “O-GLYCOPROTEIN-2-ACETAMIDO-2-DEOXY-3-D-GLUCOPYRANOSIDASE INHIBITORS” (BIOGEN MA INC., priority 2018, published 2024)
